Laboratory results: US12186323B2, “Combination drugs of hypoxanthine and human immunoglobulin” (Institute of Blood Transfusion, Chinese Academy of Medical …, priority 2021, dated 2025)

Test system: male mice
Test: Analysis of intestinal injury by 12 Gy of local abdominal irradiation
Assay type: in vivo
Conditions: 12 Gy local abdominal irradiation
Description: 44 male mice were divided into 4 groups: • 1) TAI group, 10 mice; • 2) hypoxanthine group, 10 mice; • 3) IVIg group, 12 mice; • 4) IVIg+hypoxanthine group, 12 mice;
TAI group received only local abdominal irradiation.
Hypoxanthine was orally administered to the mice in hypoxanthine group 30 min before irradiation, followed by gavage through mouth every two days. The dose of hypoxanthine for each gavage was 50 mg/kg body weight.

[1] = hypoxanthine vs TAI group (FIG. 6), IVIg+hypoxanthine vs IVIg group (FIG. 8)

O=c1[nH]cnc2nc[nH]c12 [hypoxanthine]
no difference: length of the large intestine (hypoxanthine vs TAI group (FIG. 5), IVIg+hypoxanthine vs IVIg group (FIG. 7)) | level of inflammatory factor IL-6 in the small intestine [1] | level of inflammatory factor TNFα in the small intestine [1]
